One experiment concerns the target human recombinant BACE2 (Homo sapiens (Human), UniProt Q9Y5Z0). Kind of experiment: In vitro enzymatic BACE2 FRET assay. The settings on record: BACE2 FRET enzyme assay; read-out: IC50 IP (μM) BACE2 enzyme. Format: biochemical. The method, boiled down: (§1)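 Reactions were initiated by adding 50 nM of a peptide carrying fluorophore and quencher on opposite sides of the cleavage site and ran for one hour. Tris buffer then brought the pH to neutrality, ending the reaction, and fluorescence was measured (488 nm excitation, 590 nm emission).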

In experiment [1] the test system is Aβ40 in conditioned medium of cells stably expressing Amyloid Precursor Protein (APP). Briefly: In vitro BACE-1 cell-based assay (Aβ40 sandwich ELISA). The settings on record: BACE1 cell-based assay; read-out: IC50 IP (μM) BACE1 cell. In short, it runs like this: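 Aβ40 in supernatants measured by time-resolved fluorescence sandwich ELISA, with pAb40 as capture and biotin-6E10 as detector antibody, each incubated at 4 °C.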

The target of a further experiment is human recombinant BACE1 (Homo sapiens (Human), UniProt P56817). Kind of experiment: In vitro enzymatic BACE1 FRET assay. The experiment is classed as biochemical. The settings on record: BACE1 FRET enzyme assay; read-out: IC50 IP (μM) BACE1 enzyme. The method, boiled down: as §1
Sequence of human recombinant BACE1 (P56817 46-501): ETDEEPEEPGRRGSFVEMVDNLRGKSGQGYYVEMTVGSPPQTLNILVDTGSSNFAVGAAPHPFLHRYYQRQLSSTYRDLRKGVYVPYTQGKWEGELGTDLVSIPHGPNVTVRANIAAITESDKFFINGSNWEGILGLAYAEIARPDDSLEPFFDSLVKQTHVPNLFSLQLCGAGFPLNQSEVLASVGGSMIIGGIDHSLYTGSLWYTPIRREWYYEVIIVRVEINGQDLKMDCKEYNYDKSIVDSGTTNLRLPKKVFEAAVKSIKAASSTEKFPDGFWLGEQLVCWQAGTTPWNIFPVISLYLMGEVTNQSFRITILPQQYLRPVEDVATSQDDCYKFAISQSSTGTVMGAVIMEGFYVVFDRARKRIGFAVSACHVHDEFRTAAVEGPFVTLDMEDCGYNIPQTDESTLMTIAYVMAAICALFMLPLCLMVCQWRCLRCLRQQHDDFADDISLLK
The next experiment deals with Recombinant Cat D (Homo sapiens (Human), UniProt P07339). Briefly: In vitro enzymatic Cathepsin D (Cat D) FRET assay. Format: biochemical. The settings on record: Cathepsin D FRET enzyme assay; read-out: IC50 IP (μM) CatD. In short, it runs like this:
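Assay pH is 3.5 (0.05 M citrate, 5 mM CHAPS, 10% DMSO final) with Cat D from CHO cells. A 20 nM quenched peptide substrate is cleaved over one hour; the reaction is ended with Tris and read by fluorescence (ex 500, em 580 nm).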

Some results are limits rather than exact numbers.

Sequence of Recombinant Cat D (P07339 65-412): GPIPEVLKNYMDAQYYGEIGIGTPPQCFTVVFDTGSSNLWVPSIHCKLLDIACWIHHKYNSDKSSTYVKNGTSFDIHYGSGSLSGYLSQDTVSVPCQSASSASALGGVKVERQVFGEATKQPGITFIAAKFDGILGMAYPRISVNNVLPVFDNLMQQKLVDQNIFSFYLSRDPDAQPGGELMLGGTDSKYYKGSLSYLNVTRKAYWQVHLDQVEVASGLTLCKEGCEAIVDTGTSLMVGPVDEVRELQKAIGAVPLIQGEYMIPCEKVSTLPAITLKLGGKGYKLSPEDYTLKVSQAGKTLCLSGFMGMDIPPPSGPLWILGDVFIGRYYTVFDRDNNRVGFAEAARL
Sequence of human recombinant BACE2 (Q9Y5Z0 63-518): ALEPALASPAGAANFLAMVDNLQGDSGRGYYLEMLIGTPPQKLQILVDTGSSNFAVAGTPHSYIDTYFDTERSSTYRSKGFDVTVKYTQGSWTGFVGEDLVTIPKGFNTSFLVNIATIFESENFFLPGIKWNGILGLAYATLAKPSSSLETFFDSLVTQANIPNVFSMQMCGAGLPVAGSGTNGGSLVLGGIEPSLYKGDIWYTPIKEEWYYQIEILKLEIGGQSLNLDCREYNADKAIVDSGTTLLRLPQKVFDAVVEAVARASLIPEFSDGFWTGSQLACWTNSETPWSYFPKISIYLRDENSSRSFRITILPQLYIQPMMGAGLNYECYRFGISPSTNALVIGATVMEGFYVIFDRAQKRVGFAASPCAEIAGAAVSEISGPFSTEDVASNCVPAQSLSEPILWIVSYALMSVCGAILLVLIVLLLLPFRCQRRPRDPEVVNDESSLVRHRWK

Turning to `C#CCOc1cnc(C(=O)Nc2cc(F)c(F)c([C@@]3(C)N=C(N)S[C@H]4C[C@H]43)c2)c(C)n1` [Example 77, N-(3-((1S,5S,6S)-3-amino-5-methyl-2-thia-4-azabicyclo[4.1.0]hept-3-en-5-yl)-4,5-difluorophenyl)-3-methyl-5-(2-propyn-1-yloxy)-2-pyrazinecarboxamide], the IC50 was determined as 0.0461 µM at human recombinant BACE2, 0.0217 µM in experiment [1], 0.0047 µM on human recombinant BACE1 and 949 µM on Recombinant Cat D.

`Cc1cc(Cl)cnc1C(=O)Nc1cc(F)c(F)c([C@@]2(CF)N=C(N)S[C@H]3C[C@H]32)c1` [Example 78, N-(3-((1S,5S,6S)-3-amino-5-(fluoromethyl)-2-thia-4-azabicyclo[4.1.0]hept-3-en-5-yl)-4,5-difluorophenyl)-5-chloro-3-methyl-2-pyridinecarboxamide]: the IC50 at human recombinant BACE2 was 0.00126 µM; in experiment [1] it was 0.0917 µM; on human recombinant BACE1, 0.00464 µM; on Recombinant Cat D, 627 µM.

As for `Cc1nc(OCC(F)(F)F)cnc1C(=O)Nc1ccc(F)c([C@@]2(CF)N=C(N)S[C@@]3(CO)C[C@H]32)c1` [Example 79, N-(3-((1S,5S,6S)-3-amino-5-(fluoromethyl)-1-(hydroxymethyl)-2-thia-4-azabicyclo[4.1.0]hept-3-en-5-yl)-4-fluorophenyl)-3-methyl-5-(2,2,2-trifluoroethoxy)-2-pyrazinecarboxamide], the half-maximal inhibitory concentration (IC50) on human recombinant BACE2 is 0.143 µM; in experiment [1], 0.0284 µM; on human recombinant BACE1, 0.00489 µM; on Recombinant Cat D it was more than 400 µM.

As for `N#Cc1cnc2c(Nc3ccc(F)c([C@@]4(CF)N=C(N)S[C@@]5(CO)C[C@H]54)c3)ncnc2c1` [Example 80, 4-((3-((1S,5S,6S)-3-amino-5-(fluoromethyl)-1-(hydroxymethyl)-2-thia-4-azabicyclo[4.1.0]hept-3-en-5-yl)-4-fluorophenyl)amino)pyrido[3,2-d]pyrimidine-7-carbonitrile], the half-maximal inhibitory concentration (IC50) at human recombinant BACE2 was 0.0251 µM; in experiment [1], 0.00851 µM; at human recombinant BACE1, 0.00913 µM; on Recombinant Cat D it was more than 400 µM.

Take `COc1cnc(C(=O)Nc2cc(F)c(F)c([C@@]3(CF)N=C(N)S[C@H]4C[C@H]43)c2)c(C)c1` [Example 81, N-(3-((1S,5S,6S)-3-amino-5-(fluoromethyl)-2-thia-4-azabicyclo[4.1.0]hept-3-en-5-yl)-4,5-difluorophenyl)-5-methoxy-3-methyl-2-pyridinecarboxamide]: the half-inhibitory concentration (IC50) was found to be 0.0116 µM on human recombinant BACE2, 0.047 µM in experiment [1], 0.0219 µM on human recombinant BACE1 and 1390 µM at Recombinant Cat D.

With `C#CCOc1cnc(C(=O)Nc2cc(F)c(F)c([C@@]3(CF)N=C(N)S[C@@]4(CO)C[C@H]43)c2)cn1` [Example 83, N-(3-((1S,5S,6S)-3-amino-5-(fluoromethyl)-1-(hydroxymethyl)-2-thia-4-azabicyclo[4.1.0]hept-3-en-5-yl)-4,5-difluorophenyl)-5-(2-propyn-1-yloxy)-2-pyrazinecarboxamide], the IC50 at human recombinant BACE2 came out at 0.0138 µM; in experiment [1] it was 0.00092 µM; on human recombinant BACE1, 0.00046 µM; on Recombinant Cat D, 105 µM.

`CC#CCOc1cnc(C(=O)Nc2cc(F)c(F)c([C@@]3(C)N=C(N)S[C@@]4(CO)C[C@H]43)c2)c(C)c1` [Example 85, N-(3-((1S,5S,6S)-3-amino-1-(hydroxymethyl)-5-methyl-2-thia-4-azabicyclo[4.1.0]hept-3-en-5-yl)-4,5-difluorophenyl)-5-(2-butyn-1-yloxy)-3-methyl-2-pyridinecarboxamide]: the concentration for half-maximal inhibition (IC50) at human recombinant BACE2 is 0.0435 µM; in experiment [1], 0.00216 µM; at human recombinant BACE1, 0.00062 µM; at Recombinant Cat D, 1550 µM.

For `Cc1cc(OC(F)F)cnc1C(=O)Nc1cc(F)c(F)c([C@@]2(CF)N=C(N)S[C@H]3C[C@H]32)c1` [Example 86, N-(3-((1S,5S,6S)-3-amino-5-(fluoromethyl)-2-thia-4-azabicyclo[4.1.0]hept-3-en-5-yl)-4,5-difluorophenyl)-5-(difluoromethoxy)-3-methyl-2-pyridinecarboxamide], the IC50 is 0.0206 µM at human recombinant BACE2, 0.0501 µM in experiment [1], 0.00763 µM on human recombinant BACE1 and 715 µM at Recombinant Cat D.

Take `COc1cnc2c(Nc3cc(F)c(F)c([C@@]4(C)N=C(N)S[C@@]5(CO)C[C@H]54)c3)nccc2c1` [Example 89, ((1S,5S,6S)-3-amino-5-(2,3-difluoro-5-((3-methoxy-1,7-naphthyridin-8-yl)amino)phenyl)-5-methyl-2-thia-4-azabicyclo[4.1.0]hept-3-en-1-yl)methanol]: the IC50 on human recombinant BACE2 is 0.0364 µM; in experiment [1] it was 0.0198 µM; on human recombinant BACE1, 0.0228 µM; at Recombinant Cat D, more than 400 µM.

On to `COC[C@@]12C[C@@H]1[C@@](CF)(c1cc(Nc3nccc4cc(C#N)cnc34)cc(F)c1F)N=C(N)S2` [Example 90, 8-((3-((1R,5S,6R)-3-amino-5-(fluoromethyl)-1-(methoxymethyl)-2-thia-4-azabicyclo[4.1.0]hept-3-en-5-yl)-4,5-difluorophenyl)amino)-1,7-naphthyridine-3-carbonitrile], for which the IC50 at human recombinant BACE2 was 0.0112 µM; in experiment [1] it was 0.128 µM; on human recombinant BACE1, 0.00682 µM; on Recombinant Cat D, 34.1 µM.

In the case of `COc1cnc2c(Nc3cc(F)c(F)c([C@@]4(C)N=C(N)S[C@@]5(CO)C[C@H]54)c3)ncc(F)c2c1` [Example 91, ((1S,5S,6S)-3-amino-5-(2,3-difluoro-5-((5-fluoro-3-methoxy-1,7-naphthyridin-8-yl)amino)phenyl)-5-methyl-2-thia-4-azabicyclo[4.1.0]hept-3-en-1-yl)methanol], the IC50 on human recombinant BACE2 stood at 0.0111 µM; in experiment [1], 0.0256 µM; on human recombinant BACE1, 0.00524 µM; on Recombinant Cat D, 1210 µM.

As to `C[C@]1(c2cc(Nc3ncnc4cc(Cl)cnc34)cc(F)c2F)N=C(N)S[C@@]2(CO)C[C@H]21` [Example 92, ((1S,5S,6S)-3-amino-5-(5-((7-chloropyrido[3,2-d]pyrimidin-4-yl)amino)-2,3-difluorophenyl)-5-methyl-2-thia-4-azabicyclo[4.1.0]hept-3-en-1-yl)methanol], the 50% inhibitory concentration (IC50) amounted to 0.00373 µM at human recombinant BACE2, 0.0102 µM in experiment [1], 0.0052 µM at human recombinant BACE1 and 414 µM at Recombinant Cat D.

For the compound `COc1cnc2c(Nc3cc(F)c(F)c([C@@]4(C)N=C(N)S[C@@]5(CO)C[C@H]54)c3)nccc2n1` [Example 93, ((1S,5S,6S)-3-Amino-5-(2,3-difluoro-5-((2-methoxypyrido[3,4-b]pyrazin-5-yl)amino)phenyl)-5-methyl-2-thia-4-azabicyclo[4.1.0]hept-3-en-1-yl)methanol], the IC50 at human recombinant BACE2 came to 0.0342 µM; in experiment [1], 0.0108 µM; at human recombinant BACE1 it was 0.01 µM; at Recombinant Cat D it was 1380 µM.

With `Cc1cc(C#N)cnc1C(=O)Nc1cc(F)c(F)c([C@@]2(C)N=C(N)S[C@@]3(C(F)F)C[C@@H]23)c1` [Example 94, N-(3-((1S,5S,6S)-3-amino-1-(difluoromethyl)-5-methyl-2-thia-4-azabicyclo[4.1.0]hept-3-en-5-yl)-4,5-difluorophenyl)-5-cyano-3-methylpicolinamide], the IC50 on human recombinant BACE2 is less than 0.00203 µM; in experiment [1] it was 0.00304 µM; at human recombinant BACE1 it was 0.00053 µM; on Recombinant Cat D, 559 µM.

Turning to `COC[C@@]12C[C@@H]1[C@@](CF)(c1cc(NC(=O)c3ccc(Cl)cn3)cc(F)c1F)N=C(N)S2` [Example 96, N-(3-((1R,5S,6R)-3-amino-5-(fluoromethyl)-1-(methoxymethyl)-2-thia-4-azabicyclo[4.1.0]hept-3-en-5-yl)-4,5-difluorophenyl)-5-chloro-2-pyridinecarboxamide], the IC50 at human recombinant BACE2 stood at 0.0024 µM; in experiment [1] it was 0.0174 µM; on human recombinant BACE1, 0.00726 µM; at Recombinant Cat D, 40.4 µM.

For the compound `N#Cc1cnc2c(Nc3ccc(F)c([C@@]4(CF)N=C(N)S[C@@]5(CF)C[C@H]54)c3)ncnc2c1` [Example 97, 4-((3-((1S,5S,6S)-3-amino-1,5-bis(fluoromethyl)-2-thia-4-azabicyclo[4.1.0]hept-3-en-5-yl)-4-fluorophenyl)amino)pyrido[3,2-d]pyrimidine-7-carbonitrile], the half-maximal inhibitory concentration (IC50) at human recombinant BACE2 amounted to 0.0632 µM; in experiment [1], 0.0312 µM; on human recombinant BACE1, 0.0118 µM; at Recombinant Cat D, 752 µM.

As for `C[C@]1(c2cc(NC(=O)c3ccc(Cl)cn3)cnc2F)N=C(N)S[C@@]2(CF)C[C@H]21` [Example 98, N-(5-((1S,5S,6S)-3-amino-1-(fluoromethyl)-5-methyl-2-thia-4-azabicyclo[4.1.0]hept-3-en-5-yl)-6-fluoropyridin-3-yl)-5-chloropicolinamide], the IC50 at human recombinant BACE2 worked out at 0.0032 µM; in experiment [1] it was 0.0056 µM; at human recombinant BACE1 it was 0.00665 µM; on Recombinant Cat D it was 3140 µM.

On to `COC(=O)[C@]12C[C@H]1[C@@](C)(c1cc(NC(=O)c3ccc(Cl)cn3)cnc1F)N=C(N)S2` [Example 99, (1S,5S,6S)-methyl 3-amino-5-(5-(5-chloropicolinamido)-2-fluoropyridin-3-yl)-5-methyl-2-thia-4-azabicyclo[4.1.0]hept-3-ene-1-carboxylate], for which the IC50 at human recombinant BACE2 is 0.00824 µM; in experiment [1], 0.0659 µM; at human recombinant BACE1 it was 0.00659 µM; at Recombinant Cat D, 1130 µM.

(Values after US20160046618A1, “Cyclopropyl Fused Thiazin-2-Amine Compounds as Beta-Secretase Inhibitors and Methods of Use” (AMGEN INC., priority 2014, published 2016).)
